Our source for the GI50 values is patent US8765749B2, “1,6-disubstituted indole compounds as protein kinase inhibitors” (Korea Institute of Science and Technology, priority 2009, dated 2014).

The test system of one experiment is A375P cells. Kind of experiment: Inhibition activity against proliferation of A375P melanoma cells (MTT assay). Conditions: Homo sapiens, read-out: Inhibition activity against proliferation of A375P cells (GI50, μM). (In general: Formazan colour is commonly taken as a measure of viable cells.)
The subject of another experiment is SK-MEL28 cells. Kind of experiment: Inhibition activity against proliferation of SK-MEL28 melanoma cells (MTT assay). Conditions: Homo sapiens, SK-MEL-28, read-out: Inhibition activity against proliferation of SK-MEL28 cells (GI50, μM).

Structures are written as SMILES.

In the case of `Nc1cc(-n2ccc3ccc(-c4cccc(NC(=O)Nc5ccc(C(F)(F)F)c(Cl)c5)c4)cc32)ncn1` [Example 2, 1-(3-(1-(6-aminopyrimidin-4-yl)-1H-indol-6-yl)phenyl)-3-(3-chloro-4-(trifluoromethyl)phenyl)urea], the GI50 with A375P cells and with SK-MEL28 cells was less than 10 µM throughout.
As for `Nc1cc(-n2ccc3ccc(-c4cccc(NC(=O)Nc5ccccc5F)c4)cc32)ncn1` [Example 3, 1-(3-(1-(6-aminopyrimidin-4-yl)-1H-indol-6-yl)phenyl)-3-(2-fluorophenyl)urea], the GI50 in the experiment on A375P cells was less than 10 µM.
Consider `Nc1cc(-n2ccc3ccc(-c4cccc(NC(=O)Nc5ccc(Cl)c(Cl)c5)c4)cc32)ncn1` [Example 4, 1-(3-(1-(6-aminopyrimidin-4-yl)-1H-indol-6-yl)phenyl)-3-(3,4-dichlorophenyl)urea], for which, in the experiment with A375P cells, the GI50 was less than 10 µM.
Consider `Nc1cc(-n2ccc3ccc(-c4cccc(NC(=O)NC5CCCCC5)c4)cc32)ncn1` [Example 5, 1-(3-(1-(6-aminopyrimidin-4-yl)-1H-indol-6-yl)phenyl)-3-cyclohexylurea], for which the GI50 in the experiment with A375P cells and in the experiment on SK-MEL28 cells was less than 10 µM each time.
Consider `Nc1cc(-n2ccc3ccc(-c4cccc(NC(=O)c5ccc(Cl)c(C(F)(F)F)c5)c4)cc32)ncn1` [Example 6, N-(3-(1-(6-aminopyrimidin-4-yl)-1H-indol-6-yl)phenyl)-4-chloro-3-(trifluoromethyl)benzamide], for which the GI50 in the experiment with A375P cells and in the experiment on SK-MEL28 cells was less than 10 µM throughout.
With `Nc1cc(-n2ccc3ccc(-c4cccc(NC(=O)c5cc(N6CCOCC6)cc(C(F)(F)F)c5)c4)cc32)ncn1` [Example 7, N-(3-(1-(6-aminopyrimidin-4-yl)-1H-indol-6-yl)phenyl)-3-morpholino-5-(trifluoromethyl)benzamide], the GI50 in the experiment with A375P cells and in the experiment with SK-MEL28 cells was less than 10 µM each time.
As for `Cc1cn(-c2cc(C(=O)Nc3cccc(-c4ccc5ccn(-c6cc(N)ncn6)c5c4)c3)cc(C(F)(F)F)c2)cn1` [Example 8, N-(3-(1-(6-aminopyrimidin-4-yl)-1H-indol-6-yl)phenyl)-3-(4-methyl-1H-imidazol-1-yl)-5-(trifluoromethyl)benzamide], the GI50 with A375P cells and in the experiment with SK-MEL28 cells was less than 10 µM throughout.
Regarding `CC(C)(C#N)c1cccc(C(=O)Nc2cccc(-c3ccc4ccn(-c5cc(N)ncn5)c4c3)c2)c1` [Example 9, N-(3-(1-(6-aminopyrimidin-4-yl)-1H-indol-6-yl)phenyl)-3-(2-cyanopropan-2-yl)benzamide], the GI50 in the experiment with A375P cells and in the experiment with SK-MEL28 cells was less than 10 µM in each case.
Turning to `COc1ccc(-c2ccc(C(=O)Nc3cccc(-c4ccc5ccn(-c6cc(N)ncn6)c5c4)c3)o2)cc1` [Example 10, N-(3-(1-(6-aminopyrimidin-4-yl)-1H-indol-6-yl)phenyl)-5-(4-methoxyphenyl)furan-2-carboxamide], in the experiment on A375P cells, the GI50 was less than 10 µM.
Take `Nc1cc(-n2ccc3ccc(-c4cccc(NC(=O)c5ccc(-c6cc(C(F)(F)F)ccc6Cl)o5)c4)cc32)ncn1` [Example 11]: the GI50 with A375P cells is less than 10 µM.
Regarding `Cc1cc(C(=O)Nc2cccc(-c3ccc4ccn(-c5cc(N)ncn5)c4c3)c2)c(C)o1` [Example 12, N-(3-(1-(6-aminopyrimidin-4-yl)-1H-indol-6-yl)phenyl)-2,5-dimethylfuran-3-carboxamide], the GI50 with A375P cells is less than 10 µM.
With `Cc1cc(C(=O)Nc2cccc(-c3ccc4ccn(-c5cc(N)ncn5)c4c3)c2)no1` [Example 13, N-(3-(1-(6-aminopyrimidin-4-yl)-1H-indol-6-yl)phenyl)-5-methylisoxazol-3-carboxamide], the GI50 in the experiment with A375P cells and with SK-MEL28 cells was less than 10 µM each time.
On to `Nc1cc(-n2ccc3ccc(-c4cccc(NC(=O)c5cc(-c6ccc(Cl)cc6)on5)c4)cc32)ncn1` [Example 14, N-(3-(1-(6-aminopyrimidin-4-yl)-1H-indol-6-yl)phenyl)-5-(4-chlorophenyl)isoxazol-3-carboxamide], for which the GI50 in the experiment with A375P cells is less than 10 µM.
On the same count and under the same terms, in the case of `Nc1cc(-n2ccc3ccc(-c4cccc(NC(=O)c5cscn5)c4)cc32)ncn1` [Example 15, N-(3-(1-(6-aminopyrimidin-4-yl)-1H-indol-6-yl)phenyl)thiazol-4-carboxamide] it was less than 10 µM; in that of `Nc1cc(-n2ccc3ccc(-c4cccc(NC(=O)c5csc(-c6ccncc6)n5)c4)cc32)ncn1` [Example 16, N-(3-(1-(6-aminopyrimidin-4-yl)-1H-indol-6-yl)phenyl)-2-(pyridin-4-yl)thiazol-4-carboxamide], less than 10 µM; in that of `Nc1cc(-n2ccc3ccc(-c4cccc(NC(=O)c5cnn(-c6ccccc6)c5C(F)(F)F)c4)cc32)ncn1` [Example 17, N-(3-(1-(6-aminopyrimidin-4-yl)-1H-indol-6-yl)phenyl)-1-phenyl-5-(trifluoromethyl)-1H-pyrazol-4-carboxamide], less than 10 µM.
Turning to `Nc1cc(-n2ccc3ccc(-c4cccc(NC(=O)c5ccc(Br)s5)c4)cc32)ncn1` [Example 18, N-(3-(1-(6-aminopyrimidin-4-yl)-1H-indol-6-yl)phenyl)-5-bromothiophen-2-carboxamide], the GI50 with A375P cells was less than 10 µM.
`CN1CCC(Oc2ccc(C(=O)Nc3cccc(-c4ccc5ccn(-c6cc(N)ncn6)c5c4)c3)cc2C(F)(F)F)CC1` [Example 19, N-(3-(1-(6-aminopyrimidin-4-yl)-1H-indol-6-yl)phenyl)-4-(1-methylpiperidin-4-yloxy)-3-(trifluoromethyl)benzamide]: the GI50 in the experiment with A375P cells is less than 10 µM.
Same read-out and setting: in the case of `Cc1ccc(S(=O)(=O)Nc2cccc(-c3ccc4ccn(-c5cc(N)ncn5)c4c3)c2)cc1` [Example 20, N-(3-(1-(6-aminopyrimidin-4-yl)-1H-indol-6-yl)phenyl)-4-methylbenzenesulfonamide] it was less than 10 µM.
For `COc1ccccc1NC(=O)Nc1cccc(-c2ccc3ccn(-c4cc(NC5CC5)ncn4)c3c2)c1` [Example 23, 1-(3-(1-(6-(cyclopropylamino)pyrimidin-4-yl)-1H-indol-6-yl)phenyl)-3-(2-methoxyphenyl)urea], the GI50 in the experiment with A375P cells and in the experiment with SK-MEL28 cells was less than 10 µM in each case.
As to `COc1ccccc1NC(=O)Nc1cccc(-c2ccc3ccn(-c4cc(NCCN5CCOCC5)ncn4)c3c2)c1` [Example 24, 1-(2-methoxyphenyl)-3-(3-(1-(6-(2-morpholinoethylamino)pyrimidin-4-yl)-1H-indol-6-yl)phenyl)urea], the GI50 with A375P cells and with SK-MEL28 cells was less than 10 µM in each case.
Consider `COc1ccccc1NC(=O)Nc1cccc(-c2ccc3ccn(-c4ccnc(N)n4)c3c2)c1` [Example 25, 1-(3-(1-(2-aminopyrimidin-4-yl)-1H-indol-6-yl)phenyl)-3-(2-methoxyphenyl)urea], for which the GI50 in the experiment with A375P cells and in the experiment with SK-MEL28 cells was less than 10 µM each time.
In the case of `O=C(Nc1cccc(-c2ccc3ccn(-c4cc(NC(=O)C5CC5)ncn4)c3c2)c1)Nc1ccccc1F` [Example 27, N-(6-(6-(3-(3-(2-fluorophenyl)ureido)phenyl)-1H-indol-1-yl)pyrimidin-4-yl)cyclopropanecarboxamide], the GI50 with A375P cells was less than 10 µM.
On the same count and under the same terms, with `O=C(Nc1cccc(-c2ccc3ccn(-c4cc(NC(=O)C5CC5)ncn4)c3c2)c1)Nc1ccc(Cl)c(Cl)c1` [Example 28, N-(6-(6-(3-(3-(3,4-dichlorophenyl)ureido)phenyl)-1H-indol-1-yl)pyrimidin-4-yl)cyclopropanecarboxamide] the figure was less than 10 µM; with `O=C(Nc1cccc(-c2ccc3ccn(-c4cc(NC(=O)C5CC5)ncn4)c3c2)c1)NC1CCCCC1` [Example 29, N-(6-(6-(3-(3-cyclohexylureido)phenyl)-1H-indol-1-yl)pyrimidin-4-yl)cyclopropanecarboxamide], less than 10 µM.
Regarding `O=C(Nc1cccc(-c2ccc3ccn(-c4cc(NC(=O)C5CC5)ncn4)c3c2)c1)c1ccc(Cl)c(C(F)(F)F)c1` [Example 30, 4-chloro-N-(3-(1-(6-(cyclopropanecarboxamido)pyrimidin-4-yl)-1H-indol-6-yl)phenyl)-3-(trifluoromethyl)benzamide], the GI50 with A375P cells was less than 10 µM.
On the same count and under the same terms, with `O=C(Nc1cccc(-c2ccc3ccn(-c4cc(NC(=O)C5CC5)ncn4)c3c2)c1)c1cc(N2CCOCC2)cc(C(F)(F)F)c1` [Example 31, N-(3-(1-(6-(cyclopropanecarboxamido)pyrimidin-4-yl)-1H-indol-6-yl)phenyl)-3-morpholino-5-(trifluoromethyl)benzamide] the figure was less than 10 µM; with `Cc1cn(-c2cc(C(=O)Nc3cccc(-c4ccc5ccn(-c6cc(NC(=O)C7CC7)ncn6)c5c4)c3)cc(C(F)(F)F)c2)cn1` [Example 32, N-(3-(1-(6-(cyclopropanecarboxamido)pyrimidin-4-yl)-1H-indol-6-yl)phenyl)-3-(4-methyl-1H-imidazol-1-yl)-5-(trifluoromethyl)benzamide], less than 10 µM.
Turning to `CC(C)(C#N)c1cccc(C(=O)Nc2cccc(-c3ccc4ccn(-c5cc(NC(=O)C6CC6)ncn5)c4c3)c2)c1` [Example 33, 3-(2-cyanopropan-2-yl)-N-(3-(1-(6-(cyclopropanecarboxamido)pyrimidin-4-yl)-1H-indol-6-yl)phenyl)benzamide], in the experiment on A375P cells, the GI50 is less than 10 µM.
Regarding `COc1ccccc1NC(=O)Nc1ccc(C)c(-c2ccc3ccn(-c4cc(NC(=O)C5CC5)ncn4)c3c2)c1` [Example 35, N-(6-(6-(5-(3-(2-methoxyphenyl)ureido)-2-methylphenyl)-1H-indol-1-yl)pyrimidin-4-yl)cyclopropanecarboxamide], in the experiment on A375P cells, the GI50 is less than 10 µM.
Turning to `COc1ccccc1NC(=O)Nc1cccc(-c2ccc3ccn(-c4ncnc5[nH]ccc45)c3c2)c1` [Example 36, 1-(3-(1-(7H-pyrrolo[2,3-d]pyrimidin-4-yl)-1H-indol-6-yl)phenyl)-3-(2-methoxyphenyl)urea], the GI50 in the experiment on A375P cells and with SK-MEL28 cells was less than 10 µM throughout.
Take `O=C(Nc1cccc(-c2ccc3ccn(-c4ncnc5[nH]ccc45)c3c2)c1)c1ccc(Cl)c(C(F)(F)F)c1` [Example 37, N-(3-(1-(7H-pyrrolo[2,3-d]pyrimidin-4-yl)-1H-indol-6-yl)phenyl)-4-chloro-3-(trifluoromethyl)benzamide]: the GI50 in the experiment with A375P cells is less than 10 µM.
